Test results as given in the NIST ThermoML archive (doi:10.1021/je010317u).
Numbers after ± are expanded uncertainties.

Test: refractive index (Na D-line) (dimensionless)
Settings: 298.15 K; 101.33 kPa; Liquid; Abbe refractometer

Row | Compound | refractive index
1 | Cc1cccc(C)c1 [1,3-dimethylbenzene] | 1.4943 ± 0.0005
2 | Cc1ccc(C)cc1 [1,4-dimethylbenzene] | 1.4925 ± 0.0005
3 | Cc1ccccc1 [toluene] | 1.494 ± 0.0004
4 | Cc1ccccc1C [1,2-dimethylbenzene] | 1.5018 ± 0.0005
5 | CCCCCCCCCCCCCCCC [hexadecane] | 1.4325 ± 0.0005
6 | c1ccccc1 [benzene] | 1.499 ± 0.0004
7 | CCCCCC [hexane] | 1.3728 ± 0.0005
8 | CCCCCCCCCCCC [dodecane] | 1.4275 ± 0.0005
